# Values joined by “and” are separate entries in the source; they are usually repeats but may differ in a detail not shown here. Equal entries are not always repeated.
# System: Meloidogyne spp (Mixture of Meloidogyne incognita and Meloidogyne hapla)
# Conditions: in vivo
smiles,measurement,value
"CN1CSC(=S)N(C)C1 [dazomet, 3,5-dimethyltetrahydro-2H-1,3,5-thiadiazine-2-thione]",Observed efficacy,2% and 0%

# Reference: US20060252828A1 (priority 2003, published 2006)
